The values below come from patent US20080103212A1, “Treatment of fruit in storage facility with solid derived diphenylamine anti scald agent” (priority 2006, published 2008).

For data set [1], the system named is Granny Smith and Red Delicious apples. Nature of the data set: Scald and decay observation of DPA-fogged apples in cold air storage (Example 1). It is filed as in vivo. From the text: DPA was applied to Granny Smith and Red Delicious apples at a research facility. Solid, technical grade (99.5%) DPA was melted and applied to the apples in a storage facility as an aerosol using a commercial thermal fogger equipment, provided by Custom Chemical of Warden Wash., as described above. The apples were loaded into 20 bins, of 900 pounds each, of each variety and stacked in a three by three arrangement. The bins were stacked: five high in all of the back rows, in a 5-4-5 high arrangement in the center row and in a 4-3-4 arrangement in the front row. DPA was applied at a rate of 15 grams per ton. This represents a 50% excess to account for any loss in void spaces. The thermal fogging equipment was placed in the hallway of the storage facility with two 10 foot lengths of flex pipe attached to a porthole in the door of the sealed storage room. Fumigating started and reached optimum saturation in 15 minutes. The porthole was then sealed and the room was left alone for 16 hours. Application of the aerosol DPA began with the storage facility fans off. The fans were turned on after 10 minutes of aerosol DPA application and run at ambient temperatures for 12-16 hours. The morning after application the room was unsealed the apples, bins, storage walls and fan blades were checked for anomalies such as DAP sublimation as crystals and possible phytotoxicity on the fruit. […] After the initial inspection the bins were arranged outside of the building so samples could be taken. Each bin was marked as to its location in the room and samples were marked with those same ID codes. Samples were taken from the top of each bin and also by digging into the center of the bin. Each bin was effectively sampled two times. These samples were tested for DPA residual by gas chromatography. The bins were than transferred to a cold air storage facility and observed for five months. Periodically samples were collected for DPA residue, scald and decay analysis as describe below. After 6 weeks additional samples were taken and tested for DPA residual by gas chromatography. These samples were taken like the first set, eight apples from the top of the bin and then digging into the center for eight apples. After two months in common storage four bins were set out for evaluation, two Granny Smith and two Red Delicious. […] The next samples were taken one month later. […] One month later samples were taken in the same fashion as before, top and middle of the bins. Because a fungicide was not used, penicillium rot was showing in about 8% of the Red Delicious samples. The Granny Smith samples were starting to show some decay, roughly 1⁄2 percent. […] The next to last sample was taken about 6 weeks later. Scald was not a problem. […] The positive impact of the treatment was especially evident in the Granny Smith apples which are more susceptible to scald. The decay incidences were unchanged. As stated in the earlier, there was generally a slightly higher decay rate in Red Delicious compared to prior art drench type applications, which typically use one or a combination of two fungicides. The decay in this test was attributed to the lack of fungicide use in this trial.

For data set [2] the test system is unchanged. Nature of the data set: Inspection for phytotoxicity on the fruit the morning after DPA aerosol application (Example 1). It is filed as in vivo. The following applies: 15 grams per ton DPA aerosol. From the text:
DPA was applied to Granny Smith and Red Delicious apples at a research facility. Solid, technical grade (99.5%) DPA was melted and applied to the apples in a storage facility as an aerosol using a commercial thermal fogger equipment, provided by Custom Chemical of Warden Wash., as described above. The apples were loaded into 20 bins, of 900 pounds each, of each variety and stacked in a three by three arrangement. The bins were stacked: five high in all of the back rows, in a 5-4-5 high arrangement in the center row and in a 4-3-4 arrangement in the front row. DPA was applied at a rate of 15 grams per ton. This represents a 50% excess to account for any loss in void spaces. The thermal fogging equipment was placed in the hallway of the storage facility with two 10 foot lengths of flex pipe attached to a porthole in the door of the sealed storage room. Fumigating started and reached optimum saturation in 15 minutes. The porthole was then sealed and the room was left alone for 16 hours. Application of the aerosol DPA began with the storage facility fans off. The fans were turned on after 10 minutes of aerosol DPA application and run at ambient temperatures for 12-16 hours. The morning after application the room was unsealed the apples, bins, storage walls and fan blades were checked for anomalies such as DAP sublimation as crystals and possible phytotoxicity on the fruit.

Each structure is given as a SMILES string.

Regarding `c1ccc(Nc2ccccc2)cc1` [DPA, diphenylamine], the Scald entry in data set [1] (after two months in common storage, two Granny Smith and two Red Delicious bins) was “No Scald was apparent in any bin”; in data set [1] (final assessment, approximately two weeks after the next to last sample), “no additional scald”; in data set [1] (next to last sample, about 6 weeks later, all bins) it was “no scald found in any bin”; in data set [1] (one month after the two-month evaluation, both varieties), “Scald was not showing in either variety”; in data set [1] (two months after the two-month evaluation, both varieties), “Scald was not apparent in either variety”. For the same compound, in data set [2], the “possible phytotoxicity on the fruit” value is “None was found”.
